One data set deals with Jurkat. Nature of the data set: RT-CES cell proliferation inhibition, Jurkat. It counts as cell-based. The conditions noted are these: Homo sapiens, 24 hrs. The text has this:
(§1) The biological activity of compounds disclosed herein was monitored and profiled using the Real-Time Cell Electronic Sensing (RT-CES®) system from ACEA Biosciences, Inc. The RT-CES system utilizes cell-substrate impedance technology to monitor cellular behavior inside tissue culture wells in a microtiter plate format. The technology features in the integration of molecular and cell biology with microelectronics and is based on the electronic detection of biological assay process. The details of this cell electronic sensing technology and associated devices, systems and methods of use as described in U.S. provisional application No. 60/379,749, filed on Jul. […]
(§2) For measurement of cell-substrate or cell-electrode impedance using RT-CES technology, microelectrodes having appropriate geometries are fabricated onto the bottom surfaces of microtiter plate or similar device, facing into the wells. […] When there are changes to the biological status of the cells analogue electronic readout signals are measured automatically and in real time, and are converted to digital signals for processing and for analysis. In a RT-CES system, a cell index (arbitrary representation of change in impedance) is automatically derived and provided based on measured electrode impedance values. […]
(§3) To quantify cell status based on the measured cell-electrode impedance, a parameter termed Cell Index is derived. […]

Another data set deals with GTL16. Description: RT-CES cell proliferation inhibition, GTL16. It is filed as cell-based. Particulars: Homo sapiens, GTL 16.
Text: as §1, §2, §3

The subject of another data set is KB. Description: RT-CES cell proliferation inhibition, KB. It is filed as cell-based. Particulars: Homo sapiens.
Text: as §1, §2, §3

A further data set has as its system HepG2. Description: RT-CES cell proliferation inhibition, HepG2. It is filed as cell-based. Particulars: Homo sapiens.
Text: as §1, §2, §3

The next data set deals with 3T3. Description: RT-CES cell proliferation inhibition, 3T3. The conditions noted are these: Mus musculus, NIH3T3. It counts as cell-based.
Text: as §1, §2, §3

Data set [1] deals with murine Lewis lung cancer (LLC). Nature of the data set: Anti-tumor activity against LLC mice model. The conditions noted are these: 40 mg/kg; for Tumor Weight / Inhibition Rate (%): LLC, 12 days; for Tumor Weight: qod (Table 14); for Inhibition Rate (%): qod (Table 14; text qd); for Body Weight (g) Start: mouse, in vivo. It is filed as in vivo, C57 BL/6 mice. The protocol:
ACEA100160 (2-(4-ethoxyphenyl)amino-4-(6-methylimidazo[1,2-a]pyrimidin-3-yl)thiazole) and ACEA 100162 (2-(4-ethoxyphenyl)amino-4-(6-methylimidazo[2,1-b]thiazol-5-yl)thiazole) are prepared at concentration of 8 mg/ml in solution containing 20% HP-beta-CD dextrose (D5W). The solvent HP-beta-CD solution is used as a vehicle negative control.
LLC: murine Lewis lung cancer cell line.
LLC cells were cultured in DMEM medium with 10% FBS to obtain the necessary cell number for injection subcutaneously (10^7 cells).
Under a sterilized condition, sacrifice the C57 BL/6 murine LLC bearing mice, separate tumor and put it into NS. Chop the tumor into fine pieces with sterilized scissors and then homogenate into cell suspension. Inject 0.2 ml cell suspension (10^6 cells) subcutaneously into the left flank on C57 BL/6 mice. On the first treatment day before iv or ip, implanted animals are randomly divided into seven groups as following. The drugs were administrated in the schedule of Table 13 respectively. The solvent HP-beta-CD solution is used as a vehicle negative control. Observe clinical signs at least daily.
Tumor weight was recorded. The tumor inhibitory rate was calculated as follows: inhibitory rate=1-Wt/W0, where Wt is the average weight of each drug treatment group and W0 is the average weight of negative control group. Results are given as mean±SD values from n animals. Comparisons between groups were made with Student's two-tailed t test and a P<0.05 was considered significant.

The test system of a further data set is MKN45. Nature of the data set: RT-CES cell proliferation inhibition, MKN45. It is filed as cell-based. The conditions noted are these: Homo sapiens, MKN-45.
Text: as §1, §2, §3

Another data set deals with Panc-1. Nature of the data set: RT-CES cell proliferation inhibition, Panc-1. It counts as cell-based. The conditions noted are these: Homo sapiens.
Text: as §1, §2, §3

For another data set, the system named is PC3. Nature of the data set: RT-CES cell proliferation inhibition, PC3. It is filed as cell-based. Particulars: Homo sapiens, PC-3.
Text: as §1, §2, §3

A further data set deals with KB200. Nature of the data set: RT-CES cell proliferation inhibition, KB200. It is filed as cell-based. The conditions noted are these: Homo sapiens.
Text: as §1, §2, §3

Consider one molecule from US8252822B2, “Heterocyclic compounds and uses as anticancer agents” (Acea Biosciences, Inc., priority 2007, dated 2012).

Like-named read-outs stand apart in the source and are kept apart here.

One may read the IC50 as the midpoint of a concentration-inhibition curve.

On to `Br.CCOc1ccc(Nc2nc(-c3c(C)nc4sccn34)cs2)cc1` [Compound 27, 2-(4-ethoxyphenyl)amino-4-(6-methylimidazo[2,1-b]thiazol-5-yl)thiazole], for which the IC50 in the data set on Jurkat was 45.4 nM; with GTL16 (GTL16, 24 hrs, read-out: IC50 (24 hr)), 138 nM; in the data set with GTL16 (GTL16, 48 hrs, read-out: IC50 (48 hr)) it was 2.1 nM; in the data set on KB (24 hrs, read-out: IC50 (24 hr)), 22.2 nM; with KB (48 hrs, read-out: IC50 (48 hr)), 18.1 nM; in the data set with HepG2 (HepG2, 24 hrs, read-out: IC50 (24 hr)), greater than 200 nM. For the same molecule, the concentration for half-maximal inhibition (IC50) is greater than 200 nM with HepG2 (HepG2, 48 hrs, read-out: IC50 (48 hr)); 20.6 nM in the data set on 3T3 (3T3, 24 hrs, read-out: IC50 (24 hr)); 51.5 nM in the data set with 3T3 (3T3, 48 hrs, read-out: IC50 (48 hr)); greater than 200 nM with MKN45 (MKN45, 24 hrs, read-out: IC50 (24 hr)); greater than 200 nM in the data set with MKN45 (MKN45, 48 hrs, read-out: IC50 (48 hr)); 113 nM with Panc-1 (Panc-1, 24 hrs, read-out: IC50 (24 hr)). Moreover, the concentration for half-maximal inhibition (IC50) with Panc-1 (Panc-1, 48 hrs, read-out: IC50 (48 hr)) was 426 nM; with PC3 (PC3, 24 hrs, read-out: IC50 (24 hr)), 10.9 nM; in the data set with PC3 (PC3, 48 hrs, read-out: IC50 (48 hr)), 5.37 nM; in the data set with KB200 (KB200, 24 hrs, read-out: IC50 (24 hr)), 12.1 nM; with KB200 (KB200, 48 hrs, read-out: IC50 (48 hr)) it was 4.28 nM. The “Tumor Weight” value in data set [1] (IP) was 0.70 ± 0.46 g; in data set [1] (IV), 0.91 ± 0.18 g. Also, the “Inhibition Rate (%)” value in data set [1] (IP, listed as 162, 40 mg/kg) came to 39.2%; in [1] (IP, listed as ACEA100162, 40 mg/kg), 39.15%; in data set [1] (IV), 25.5%. Also, the “Body Weight (g) Start” value in data set [1] (ip) was 19.0 ± 0.8 g; in data set [1] (iv) it was 18.5 ± 1.3 g.
